Data as given in patent publication US6919363B2, “Aryl substituted pyrazoles, triazoles and tetrazoles, and the use thereof” (Euro-Celtique S.A., priority 2000, dated 2005).
Like-named read-outs stand apart in the source and are kept apart here.

Experiments:
[1] = tested on: maximal electroshock-induced seizures (MES); assay: maximum electroshock seizure test (MES), anticonvulsant activity; type: in vivo, mouse
Excerpt: The compounds of the present invention may be tested for in vivo anticonvulsant activity after i.v., p.o. or i.p. injection using a number of anticonvulsant tests in mice, including the maximum electroshock seizure test (MES). Maximum electroshock seizures are induced in male NSA mice weighing between 15-20 g and male Sprague-Dawley rats weighing between 200-225 g by application of current (50 mA, 60 pulses/sec, 0.8 msec pulse width, 1 sec duration, D.C., mice; 99 mA, 125 pulses/sec, 0.8 msec pulse width, 2 sec duration, D.C., rats) using a Ugo Basile ECT device (Model 7801). Mice are restrained by gripping the loose skin on their dorsal surface and saline-coated corneal electrodes are held lightly against the two corneae. Rats are allowed free movement on the bench top and ear-clip electrodes are used. Current is applied and animals are observed for a period of up to 30 seconds for the occurrence of a tonic hindlimb extensor response. A tonic seizure is defined as a hindlimb extension in excess of 90 degrees from the plane of the body. Results are treated in a quantal manner.
The ability of compounds of the present invention to block maximal electroshock-induced seizures (MES) is determined as described earlier.
A compound of the present invention is administered p.o. to mice 30 minutes before the test procedure.

[2] = molecular target: rBIIA isoform of Na+ channels (Rattus norvegicus, UniProt P04775); assay: electrophysiological assay, patch-clamp recordings of voltage-sensitive Na+ currents in HEK-293 cells; type: cell-based; conditions: rBIIA isoform of sodium channel
Procedure: Cell preparation: HEK-293 (NaIIA-B2) cell line stably expressing the rBIIA isoform of Na^+ channels is established in-house. The cells are cultured using standard techniques, as described previously (Verdoorn, T. A, et al., Neuron 4:919-928 (1990)). For electrophysiology, cells are plated onto poly-D-lysine pre-coated Cellware 35 mm Petri dishes (BIOCOAT, Becton Dickinson) at a density of ˜10^4 cells/dish on the day of re-seeding from confluent cultures. Our experience has been that cells are suitable for recordings for 2-3 days after plating.
Patch-clamp recordings of voltage-sensitive Na^+ currents: Whole-cell voltage-clamp recordings are made using conventional patch-clamp techniques (Hamill et al., Pfluegers Arch. 391:85-100 (1981)) with an Axopatch 200A amplifier (Axon Instruments, Foster City, Calif.). The recording chamber is continuously superfused with the external solution (150 mM NaCl, 5.4 mM KCl, 1.8 mM CaCl2, 1 mM MgCl2, 10 mM HEPES, 10 mM glucose, pH 7.4 adjusted with NaOH, osmolality ˜320 mmol/kg) at a speed of about 1 mL/min. […] Currents are recorded at room temperature (22-25° C.), filtered at 3 kHz with an active 8-pole Bessel filter (Frequency Devices, Haverhill, Mass.), digitized at 10-50 μs intervals, and stored using Digidata 1200 analog/digital interface with Pclamp6/Clampex software (Axon Instruments). […]

[3] = iv, mouse, i.v., read-out: MES i.v. ED50

Chain of rBIIA isoform of Na+ channels (P04775 whole entry, canonical isoform): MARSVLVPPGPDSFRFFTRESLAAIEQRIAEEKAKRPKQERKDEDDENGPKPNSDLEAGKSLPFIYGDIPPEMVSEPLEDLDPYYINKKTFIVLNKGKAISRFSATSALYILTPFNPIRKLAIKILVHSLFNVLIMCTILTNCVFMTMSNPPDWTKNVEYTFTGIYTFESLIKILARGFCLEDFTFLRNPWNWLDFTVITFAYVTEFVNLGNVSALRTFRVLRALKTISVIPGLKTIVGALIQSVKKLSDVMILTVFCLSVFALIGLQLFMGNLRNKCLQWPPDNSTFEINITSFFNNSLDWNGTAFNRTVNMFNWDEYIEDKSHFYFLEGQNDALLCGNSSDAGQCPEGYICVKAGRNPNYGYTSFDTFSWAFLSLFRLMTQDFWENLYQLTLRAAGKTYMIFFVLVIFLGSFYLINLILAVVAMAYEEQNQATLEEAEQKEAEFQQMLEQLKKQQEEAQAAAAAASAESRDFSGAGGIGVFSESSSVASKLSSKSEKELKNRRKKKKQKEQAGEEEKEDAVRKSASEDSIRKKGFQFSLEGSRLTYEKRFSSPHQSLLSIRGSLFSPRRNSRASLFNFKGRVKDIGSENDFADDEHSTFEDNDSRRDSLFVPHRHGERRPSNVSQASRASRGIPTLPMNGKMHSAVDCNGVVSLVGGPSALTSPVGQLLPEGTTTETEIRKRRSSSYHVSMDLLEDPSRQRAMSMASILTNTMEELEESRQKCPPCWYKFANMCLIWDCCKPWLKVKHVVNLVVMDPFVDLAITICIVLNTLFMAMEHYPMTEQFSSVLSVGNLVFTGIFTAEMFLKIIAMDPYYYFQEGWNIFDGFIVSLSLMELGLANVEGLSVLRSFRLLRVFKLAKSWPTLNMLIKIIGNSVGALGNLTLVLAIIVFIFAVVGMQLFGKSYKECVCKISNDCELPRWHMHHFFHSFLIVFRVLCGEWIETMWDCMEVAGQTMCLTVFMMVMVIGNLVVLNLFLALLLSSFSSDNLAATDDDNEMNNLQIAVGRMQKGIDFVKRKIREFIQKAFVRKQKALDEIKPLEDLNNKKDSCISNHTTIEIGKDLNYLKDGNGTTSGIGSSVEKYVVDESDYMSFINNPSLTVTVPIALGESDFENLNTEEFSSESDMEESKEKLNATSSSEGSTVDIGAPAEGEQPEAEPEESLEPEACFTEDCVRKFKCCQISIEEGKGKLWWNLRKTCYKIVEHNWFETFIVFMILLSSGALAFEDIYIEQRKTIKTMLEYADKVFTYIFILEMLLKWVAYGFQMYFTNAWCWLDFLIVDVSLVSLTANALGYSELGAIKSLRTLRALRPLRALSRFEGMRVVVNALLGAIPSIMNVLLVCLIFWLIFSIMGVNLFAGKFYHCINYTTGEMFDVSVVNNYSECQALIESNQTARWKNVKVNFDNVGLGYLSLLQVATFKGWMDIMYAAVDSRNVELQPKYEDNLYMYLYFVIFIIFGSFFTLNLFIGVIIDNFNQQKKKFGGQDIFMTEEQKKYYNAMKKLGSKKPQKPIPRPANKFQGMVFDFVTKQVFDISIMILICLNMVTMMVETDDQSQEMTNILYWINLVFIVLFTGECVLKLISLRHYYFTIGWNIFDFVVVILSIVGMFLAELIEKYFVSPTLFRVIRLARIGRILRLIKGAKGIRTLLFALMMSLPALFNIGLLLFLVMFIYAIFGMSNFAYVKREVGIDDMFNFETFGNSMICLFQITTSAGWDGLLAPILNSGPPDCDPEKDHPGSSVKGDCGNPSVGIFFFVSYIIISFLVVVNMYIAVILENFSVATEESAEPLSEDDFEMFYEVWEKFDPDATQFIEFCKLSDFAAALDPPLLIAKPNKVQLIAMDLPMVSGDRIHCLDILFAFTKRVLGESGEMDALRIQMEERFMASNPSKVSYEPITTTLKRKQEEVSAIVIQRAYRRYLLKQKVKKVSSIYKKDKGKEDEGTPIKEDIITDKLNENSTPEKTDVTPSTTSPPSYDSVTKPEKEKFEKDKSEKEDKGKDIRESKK

| Ki [2] | melting point | Structure (SMILES) | ED50 ([1]; Mus musculus, po, mice, 30 minutes before the test procedure, read-out: MES po ED50) | ED50 [1, 3] |
| --- | --- | --- | --- | --- |
| – | – | O=[N+]([O-])c1ccc(Oc2ccc(-n3cncn3)cc2)cc1 [1-[4-(4-Nitrophenoxy)phenyl]-1H-[1,2,4]triazole] | 6.6 mg/kg | – |
| 350 nM | 165 to 167 °C | NC(=O)c1ccn(-c2ccc(Oc3ccccc3)cc2)n1 [1-(4-Phenoxyphenyl)-1H-pyrazole-3-carboxamide] | – | 0.7 mg/kg |
| – | 142 to 144 °C | NC(=O)c1ccnn1-c1ccc(Oc2ccccc2)cc1 [1-(4-phenoxyphenyl)-1H-pyrazole-5-carboxamide] | – | 10 mg/kg |
